Results taken from patent publication US8288404B2, “Pyrrolidine GPR40 modulators” (Bristol-Myers Squibb Company, priority 2009, dated 2012).
Structures can show the parent of a compound that is named as a salt.

Molecular target: T1, hGPR40 (Homo sapiens, UniProt O14842)
T1 construct: 3xFLAG; expressed in transfected cells
Test: FDSS-Based Intracellular Calcium Assay (Human GRP40 In Vitro assay)
Settings: cell lines expressing GPR40, intracellular Ca2+ response, FDSS reader
Method: FDSS-Based Intracellular Calcium Assay
Cell lines expressing GPR40 are generated using the pDEST 3xflag gene expression system and are cultured in culture medium comprising the following components: F12 (Gibco #11765), 10% lipid deprived fetal bovine serum, 250 ug/ml zeocin and 500 ug/ml G418. To conduct the fluorescent imaging plate reader (FLIPR)-based calcium flux assay to measure intracellular Ca^2+ response, cells expressing GPR40 are plated on 384 well plates (BD Biocoat #356697) at a density of 20,000 cells/20 ul medium per well in phenol red and serum-free DMEM (Gibco #21063-029) and incubated overnight. Using BD kit #s 80500-310 or -301, the cells are incubated with 20 ul per well of Hank's buffered salt solution with 1.7 mM probenecid and Fluo-3 at 37° C. for 30 minutes. Compounds are dissolved in DMSO and diluted to desired concentrations with assay buffer and added to the cells as 3× solution (20 ul per well). Run fluorescence/luminescence reader FDSS (Hamamatsu) to read intracellular Ca^2+ response.
Table 1 below lists hGPR40 EC50 values measured for the following examples.

T1 sequence (O14842 whole entry): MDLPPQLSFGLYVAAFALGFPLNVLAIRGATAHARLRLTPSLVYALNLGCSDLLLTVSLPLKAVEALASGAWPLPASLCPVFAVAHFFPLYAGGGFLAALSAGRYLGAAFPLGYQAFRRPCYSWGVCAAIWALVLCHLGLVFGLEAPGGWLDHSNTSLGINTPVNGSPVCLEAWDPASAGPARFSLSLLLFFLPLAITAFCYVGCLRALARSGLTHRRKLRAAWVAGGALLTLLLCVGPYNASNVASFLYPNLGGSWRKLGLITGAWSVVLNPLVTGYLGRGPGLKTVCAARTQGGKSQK

Row | SMILES | EC50 [nM]
1 | Cc1ccccc1Oc1ccc(N2CCC[C@H]2CC(=O)O)cc1F [Example 1, (S)-2-(1-(3-fluoro-4-(o-tolyloxy)phenyl)pyrrolidin-2-yl)acetic acid, TFA] | 1630
2 | Cc1cccc(C)c1Oc1ccc(N2CCC[C@@H]2CC(=O)O)cc1 [Example 4, (R)-2-(1-(4-(2,6-dimethylphenoxy)phenyl)pyrrolidin-2-yl)acetic acid, HCl] | 3800
3 | Cc1ccccc1Oc1ccc(N2CCC[C@H]2CC(=O)O)cc1 [Example 5, (S)-2-(1-(4-(o-tolyloxy)phenyl)pyrrolidin-2-yl)acetic acid, HCl] | 65
4 | O=C(O)C[C@@H]1CCCN1c1ccc(Cc2ccc(OCc3ccccc3)cc2)cc1 [Example 58, (S)-2-(1-(4-(4-(benzyloxy)benzyl)phenyl)pyrrolidin-2-yl)acetic acid, TFA] | 331
5 | COc1ccc(F)c(-c2cccc(Oc3ccc(N4CCC[C@H]4CC(=O)O)cc3)c2C)c1 [Example 68, 2-((2S)-1-(4-(2′-fluoro-5′-methoxy-2-methylbiphenyl-3-yloxy)phenyl)pyrrolidin-2-yl)acetic acid, TFA] | 314
6 | Cc1ccccc1COc1cc(N2CCC[C@H]2CC(=O)O)ccn1 [Example 76, (S)-2-(1-(2-(2-methylbenzyloxy)pyridin-4-yl)pyrrolidin-2-yl)acetic acid, TFA] | 4390
7 | Cc1ccc(COc2ccc(N3CCC[C@@H]3CC(=O)O)cc2)cc1 [Example 109] | 4340

Other lines, results leading:

Row | EC50 [nM] | SMILES
8 | 61 | Cc1ccccc1Cc1ccc(N2C[C@@H](C(F)(F)F)C[C@H]2CC(=O)O)cc1 [Example 40, 2-((2S,4S)-1-(4-(2-methylbenzyl)phenyl)-4-(trifluoromethyl)pyrrolidin-2-yl)acetic acid, TFA]
9 | 56 | Cc1ccccc1Oc1ccc(N2C[C@@H](C(F)(F)F)C[C@H]2CC(=O)O)cc1 [Example 41, 2-((2S,4S)-1-(4-(o-tolyloxy)phenyl)-4-(trifluoromethyl)pyrrolidin-2-yl)acetic acid, TFA]
10 | 352 | Cc1ccccc1Sc1ccc(N2CCC[C@H]2CC(=O)O)cc1 [Example 44, (S)-2-(1-(4-(o-tolylthio)phenyl)pyrrolidin-2-yl)acetic acid, TFA]
11 | 55 | COc1ccc(Oc2ccc(N3C[C@@H](C(F)(F)F)C[C@H]3CC(=O)O)cc2)c(C)c1 [Example 50, 2-((2S,4S)-1-(4-(4-methoxy-2-methylphenoxy)phenyl)-4-(trifluoromethyl)pyrrolidin-2-yl)acetic acid, TFA]
12 | 305 | O=C(O)C[C@@H]1C[C@H](C(F)(F)F)CN1c1ccc(Oc2ccccc2C(F)(F)F)cc1 [Example 52, 2-((2S,4S)-4-(trifluoromethyl)-1-(4-(2-(trifluoromethyl)phenoxy)phenyl)pyrrolidin-2-yl)acetic acid, TFA]
13 | 2320 | CO[C@H]1C[C@@H](CC(=O)O)N(c2ccc(Oc3ccccc3C)cc2)C1 [Example 56, 2-((2S,4S)-4-methoxy-1-(4-(o-tolyloxy)phenyl)pyrrolidin-2-yl)acetic acid, TFA]
